With `CC1(C)Oc2c(ccc3oc(C(=O)O)cc(=O)c23)-c2cc(Cl)ccc21` the melting point was 262 to 264 °C.
`COc1ccc(-c2ccc(C(=O)Nc3ccc4nc(CN5CCCCC5)ccc4c3)cc2)cc1` showed a melting point of 192 to 194 °C.
In the case of `CC(=O)Nc1nc(CCc2ccc(CCNC(=N)N)s2)cs1`, the melting point is reported as 122 to 123 °C.
With `COc1cc(N)c(Cl)cc1C(=O)N[C@H]1CCN(CCCNc2ncccn2)C[C@H]1OC` (relative stereo) the melting point was 158 °C.
For `CN(C)CCc1nnc2n1-c1ccc(Cl)cc1C(c1ccccc1Cl)=NC2`, the melting point was 150 to 153 °C.
Work on `COc1cc(Cl)nn2c(-c3ccnc(N)c3)c(-c3ccc(F)c(C)c3)nc12` yielded a melting point of 200 to 201 °C.
For `O=C1N(Cc2ccc(C(F)(F)F)o2)c2ccccc2C12COc1cc(NC3CCNC3)ccc12` (stereo not given), the melting point was 122 to 125 °C.
`CN(C)C(=O)Oc1ccc2c(c1)N(Cc1ccccc1)CCC2` showed a melting point of 104 °C.
With `Cc1ccc(S(=O)(=O)ON2C(=O)c3ccc(C(=O)Cl)cc3C2=O)cc1` the melting point was 131 to 133 °C.
For `CCCCCCOC(=O)NCc1ccc2c(c1)C(=O)N(C1CCC(=O)NC1=O)C2=O` (stereo not given), the melting point was 111 to 113 °C.
With `COc1ccc(-c2ccc(C=O)c3ccoc23)cc1` the melting point was 143 to 144 °C.
With `CCC1c2cc(F)ccc2-c2ccccc2N1C(=O)c1ccc(O)cc1F` (stereo not given) the melting point was 109 to 111 °C.
With `O=C(O)c1ccc(-c2nn(Cc3cccc(Cl)c3)c(=S)[nH]2)cc1` the melting point was 302 °C.
`CNc1cc(C(=O)Nc2c(C)cc(C(F)(C(F)(F)F)C(F)(F)F)cc2C)ccc1C#N` gave a melting point of 204 to 206 °C.
`COC(=O)c1ccc(-c2ccc(-c3ccccc3)c(-c3ccc4c(c3)C(C)(C)CCC4(C)C)c2)c(O)c1` gave a melting point of 183 to 185 °C.
Molecule `O=C(C=Cc1ccccc1)CC(=O)C=Cc1ccccc1` has a melting point of 138 °C.
In the case of `Nc1nc2ccccc2c2c1ncn2CCOCC#Cc1ccccc1`, the melting point is reported as 196 to 197 °C.
In the case of `CCOC(=O)CSc1nc(Cl)cc(Nc2ccc(-c3ccccc3)cc2)n1`, the melting point is reported as 110 to 112 °C.
With `CCC1(O)CC(=O)OCc2c1cc1n(c2=O)Cc2c-1nc1ccccc1c2-c1ccccc1` (stereo not given) the melting point was greater than 250 °C.
`O=C(O)C(F)Oc1ccccc1` (stereo not given) showed a melting point of 61 to 63 °C.
In the case of `CCOc1csc2c(=O)c(SC)cn(C)c12`, the melting point is reported as 214 to 217 °C.
`CSc1nc2ccccc2n2cc(-c3ccccc3)cc12` gave a melting point of 132 °C.
Molecule `O=C(O)C1CCc2c(c3ccccc3n2C(=O)c2ccc3c(c2)OCO3)C1` (stereo not given) has a melting point of 198 to 200 °C.
Work on `O=C(c1ccc(-c2cc[nH]n2)cc1)N1Cc2cccn2Cc2ccccc21` yielded a melting point of 219 to 221 °C.
`COC(=O)c1[nH]c(-c2ccccc2)c(-c2ccccc2)c1C(=O)OC` gave a melting point of 185 to 187 °C.
Work on `O=C(O)c1ccc2c(c1)C(=O)c1cccc(C(=O)O)c1S2(=O)=O` yielded a melting point of 350 to 351 °C.
With `CC(C)(C)[C@@H](NC(=O)c1cc(Cl)cc(Cl)c1)NC1C(=O)C(=O)C1Nc1cccnc1Cl` (stereo not given in full) the melting point was 233 to 234 °C.
In the case of `COc1cc2c(cc1OC)C(=O)C(=O)N(CCCN(C)CCCSc1ccccc1)CC2`, the melting point is reported as 77 to 79 °C.
With `CC(C)NCC(O)COc1ccc2c(c1)CCN(C=O)C2` (stereo not given) the melting point was 56.6 to 58 °C.
`COc1ccc(N2CCN(c3c(C)c(C)c4c(c3C)CC(C)(CN(C)C)O4)CC2)cc1` (stereo not given) showed a melting point of 145 to 148 °C.
In the case of `Oc1cccc2ccc(C=Cc3ccccc3)nc12`, the melting point is reported as 70 to 72 °C.
In the case of `CC(Br)C(Br)C(=O)NC(=O)Nc1ccc(Cl)c(Cl)c1` (stereo not given), the melting point is reported as 196 to 197 °C.
For `CCOC(=O)NCC1CO1` (stereo not given), the melting point was 75 to 78 °C.
`COc1ccc2c(c1)c(CC(=O)NN)c(C)n2Cc1c(Cl)cccc1Cl` gave a melting point of 194 to 196 °C.
For `CCCCCCCCCCCCCCOc1ccc(CCNC(=O)Cc2cccc(CBr)c2)cc1`, the melting point was 75 to 77 °C.
`Cc1ncc(C#N)c(Nc2ccc3[nH]ccc3c2C)c1-c1cc2ccccc2o1` showed a melting point of 154 to 155 °C.
With `CCCCc1nc2cccc(C(=O)OC)c2n1Cc1ccc(-c2c(C#N)cnc3ccccc23)cc1` the melting point was 103 to 104 °C.
`O=C(Nc1ccc(C(=O)N2CCCCc3ccccc32)c(Cl)c1)OCCOc1ccccc1` gave a melting point of 144 to 146 °C.
`CN1CCC(c2c(O)cc(O)c3c(=O)cc(-c4ccccc4Cl)oc23)C1C(=O)O` (stereo not given) gave a melting point of 295 to 297 °C.
In the case of `CCCCCOc1cc2c(cc1/C=C/C=C/C(C)=C/C(=O)O)C(C)(C)CCC2(C)C`, the melting point is reported as 162 to 163 °C.
For `Nc1c(Cl)cc(CC(=O)c2ccccc2)c2c1OCCO2`, the melting point was 133 to 135 °C.
Work on `COCOc1ccc(CCNC(=O)/C(C#N)=C/c2cccnc2)cc1` yielded a melting point of 105 to 106 °C.
`COCCOC(=O)N1c2cc(Cl)ccc2NC(=O)[C@@H]1C` showed a melting point of 93 to 94 °C.
Work on `COC(=O)C1=C(C)NC(C)=C(C(=O)OC)C1c1cccc(Nc2c(NCCCN3CCN(C4CCCCC4)CC3)c(=O)c2=O)c1` yielded a melting point of 210 to 212 °C.
For `CN1CCN(c2nc3ccccc3nc2Cc2ccccc2)CC1`, the melting point was 89 to 90 °C.
Molecule `CC(C(=O)O)c1cccc(NC(=O)NCC(=O)N2[C@@H](c3ccccc3F)SC[C@H]2C(=O)OC(C)(C)C)c1` (stereo not given in full) has a melting point of 126 °C.
`Cc1cc2c(cc1C)N(C)c1cscc1C(=O)N2CCN(C)C` showed a melting point of 119 to 120 °C.
`COc1ccc(-c2cc(Nc3ccc(NS(C)(=O)=O)cc3)nc(C)n2)cc1OC` showed a melting point of 180 to 185 °C.
Molecule `O=C(NNS(=O)(=O)c1ccccc1)c1ccc(NCc2ccccc2)cc1` has a melting point of 214 to 215 °C.
`CCOC(=O)c1cnn(C)c1C(=O)Nc1ccn2nc(-c3cccnc3F)nc2c1` showed a melting point of 249 to 251 °C.
`CCOC(=O)c1cn(C2CC2)c2cc(Cl)c(F)c(Cl)c2c1=O` gave a melting point of 227 to 229 °C.
Molecule `[N-]=[N+]=NS(=O)(=O)c1ccccc1[N+](=O)[O-]` has a melting point of 73 to 74 °C.
`COc1ccc(CNc2nc(SC)ncc2C(=O)CP(=O)(OC)OC)cc1Cl` showed a melting point of 104 to 105 °C.
In the case of `O=C(O)c1cnc2n(c1=O)CCc1ccc(O)cc1-2`, the melting point is reported as 326 to 327 °C.
Molecule `CCN1N=C(c2ccc([N+](=O)[O-])cc2)C(C)(C)C1=O` has a melting point of 118 to 120 °C.
`COC(=O)C(C)CNc1nc2ccccc2o1` (stereo not given) showed a melting point of 89 to 90 °C.
With `O=C(O)/C=C1\Cc2ccccc2C1=O` the melting point was 201 to 203 °C.
For `O=[N+]([O-])c1c(Cl)cccc1-c1nc2ccccc2n1CC(O)CO` (stereo not given), the melting point was 188 to 189 °C.
For `N=C(N)NCCCCCC(=O)Oc1ccc2cc(C(=N)N)ccc2c1`, the melting point was 136 °C.
In the case of `COc1ccc(-n2nc3c(cc2=O)CCSc2sc(Br)cc2-3)cc1`, the melting point is reported as 148 to 150 °C.
Work on `O=c1[nH]c(=O)c2ccccc2o1` yielded a melting point of 132 to 133 °C.
Molecule `CC(C)(C)OC(=O)N1CC[C@H](c2ccc(OCC3OCCO3)cc2)[C@@H](O)C1` (racemic) has a melting point of 136 to 137 °C.
In the case of `Nc1ccc2[nH]c3ccc([N+](=O)[O-])cc3c(=O)c2c1`, the melting point is reported as greater than 350 °C.
`CCCCc1cnc(C(N)=O)cc1N` showed a melting point of 103 to 105 °C.
Work on `CS(=O)(=O)c1ccc(-c2cnn(-c3ccc(F)c(F)c3)c(=O)c2Oc2ccc(Cl)cc2)cc1` yielded a melting point of 192 to 194 °C.
In the case of `CCOC(=O)C1=C(COCCNS(N)(=O)=O)NC(C)=C(C(=O)OC)C1c1ccccc1Cl` (stereo not given), the melting point is reported as 150 to 152 °C.
Work on `C=CCN(c1ccc(OC)cc1)S(=O)(=O)c1c(F)c(F)c(F)c(F)c1F` yielded a melting point of 59 to 60 °C.
`Cn1nc(-c2c(F)cccc2Cl)nc1-c1ccc(CBr)c(Cl)c1` showed a melting point of 124 to 126 °C.
`CC(C)C1OC(=Nc2nccs2)c2c1nc1c(C(F)(F)F)cccc1c2O` (stereo not given) gave a melting point of 246 to 248 °C.
`O=C(O)C(O)c1ccc(-c2ccc(Cl)cc2)s1` (stereo not given) gave a melting point of 158 to 160 °C.
Molecule `CC12C=CC(=O)C=C1CCC1C2CCC2(C)C1CCC21CC(=O)CO1` (stereo not given) has a melting point of 147 to 153 °C.
`CC(Oc1ccc2nc(NC(=O)NCCC3CCN(C(=O)OC(C)(C)C)CC3)sc2c1)c1c(Cl)ccc(F)c1Cl` (stereo not given) gave a melting point of 95 to 105 °C.
For `C(=C(/c1ccccc1)n1c2ccccc2c2ccccc21)/c1ccccc1`, the melting point was 160 to 162 °C.
With `CCCCCCCCC1C=CC(/C=C(\C)c2ccc(C(=O)O)o2)=C2N=C3CCCCC3=C21` (stereo not given) the melting point was 160 to 162 °C.
`CS(=O)(=O)Oc1ccc(N)c(OCCBr)c1` gave a melting point of 69 to 70 °C.
`O=C(O)CCCCCCC=Cc1cccs1` gave a melting point of 45 to 46 °C.
With `COc1cccc2c1Oc1cc(SC)ccc1C2` the melting point was 112 to 114 °C.
`CNc1nc(Br)cnc1N` gave a melting point of 121 °C.
For `Cc1cc(OCC(=O)c2ccc(C(C)C)cc2)cc(C)c1C`, the melting point was 96 to 98 °C.
With `O=S1(=O)c2cccc3cccc(c23)N1CCCCN1CC=C(c2ccccc2)CC1` the melting point was 101 °C.
With `CC(=O)N[C@@H](C)COc1ccc2nc(-c3ccc(OCC4CC4)c(F)c3F)oc2c1F` the melting point was 168 °C.
`CN(C)C(=O)Oc1ccc2c(c1)[nH]c(=O)c1c3ccc(OC(=O)N(C)C)cc3oc21` showed a melting point of 255 to 269 °C.
In the case of `CC(C)C1NC(=O)OC1C(F)(F)F` (stereo not given), the melting point is reported as 71 to 72 °C.
Molecule `O=C1c2ccccc2C(OCC2CO2)N1c1cccc(Cl)c1` (stereo not given) has a melting point of 170 °C.
Work on `Clc1ccc2c(c1)CSCCCN2` yielded a melting point of 54 to 55 °C.
`c1ccc(C2CNc3ccccc3C2)cc1` (stereo not given) showed a melting point of 84 to 86 °C.
Work on `Cc1nc(C)c(Cl)c(NCc2nccc(OCCOCCSCCn3c([N+](=O)[O-])cnc3C)c2C)n1` yielded a melting point of 102 to 105 °C.
Molecule `C#CCNC(=C[N+](=O)[O-])NCCSCc1nccs1` has a melting point of 121 to 123 °C.
Work on `CSc1[nH]c(C(C)C)nc(=O)c1C#N` yielded a melting point greater than 260 °C.
For `CC1(C)Cc2c(c(N3CCOCC3)nc3sc4c(N(CCO)CCN5CCOCC5)ncnc4c23)CO1`, the melting point was 112 to 113 °C.
For `CCCCCCC(CC(=O)Nc1cc(C(N)=O)ccc1C(C)(C)C)c1ccc(OC)cc1OC` (stereo not given), the melting point was 152 to 153 °C.
For `COc1cc(OC)nc(Oc2cccc(O)c2C=O)n1`, the melting point was 82 °C.
`O=C1c2ccccc2C(=O)N1OCc1cccs1` showed a melting point of 130 to 131 °C.
With `CC(=O)OCC(C(OC(C)=O)c1ccc(Br)cc1)[N+](=O)[O-]` (stereo not given) the melting point was 81 to 82 °C.
In the case of `Cc1cccc(NC(=O)NCC(=O)N(CC(=O)OC(C)(C)C)c2ccccc2-c2ccccc2)c1`, the melting point is reported as 177 °C.
Molecule `CCOC(=O)c1ccccc1NCc1c(-c2ccccc2)nn(C)c1Cl` has a melting point of 123 °C.
In the case of `O=C(O)C1CCN(c2nnc(NCc3ccc4c(c3)OCO4)c3cnccc23)CC1`, the melting point is reported as 205 to 206 °C.
With `CCC(CC)NC1=NS(=O)(=O)c2ccc(Cl)cc2N1` the melting point was 224 to 226 °C.
For `O=C(O)CCC(=O)c1cc(Br)cc(Br)c1`, the melting point was 137 to 138 °C.
With `CC(C)(C)c1ccc(S(=O)(=O)Nc2ncnc(Cl)c2Oc2ccccc2)cc1` the melting point was 143 to 144 °C.

Reference: a melting point compilation (Tetko et al.; mined from patent text by program, amines drawn as free bases though some values may be those of a salt)
